Results taken from patent publication US5591740A, “Use of debromohymenialdisine for treating osteoarthritis” (OsteoArthritis Sciences, Incorporated, priority 1995, dated 1997).

How the values were obtained:
[1] = tested on: chondrocytes, interleukin-1 induced proteoglycan degradation; experiment: Chondrocyte cell culture matrix breakdown assay (IL-1 induced 35S proteoglycan release); assay type: cell-based, calf; conditions: for IC50: Bos taurus, chondrocyte matrix breakdown assay, 1 ng/ml rhIL-1α, 22-24 hours, read-out: IC50, inhibition of proteoglycan degradation; for dose response curve (FIG. 1): percent inhibition over a range of concentrations
Protocol: A cell culture assay was used to-measure the ability of the test compounds to slow the degradation of the extracellular matrix by a metalloproteinase. This assay measured the amount ^35 S released from chondrocytes grown in a media with ^35 S labeled sodium sulfate. The cell culture assay was carried out as follows:
Two or three 1 to 3 week old calf joints were obtained from an abattoir. The proximal end of the shank was about 4-5" long to facilitate immobilization in the holder. The joint was kept cool and transported on ice. The exterior of the intact joints was washed well with a suitable anti-microbial soap, rinsed clean with warm water, rinsed in betadine and then finally rinsed with 70% ethanol. Up to this point all steps were done in a manner to ensure that the joint was kept as clean as possible. All subsequent steps were performed in a sterile field (i.e., in a Edgeguard laminar flow tissue culture hood). The joint was immobilized and the synovial fluid was aspirated with a needle and syringe. The joint was then cut open to expose the articular cartilage using a #21 scalpel. Using locking hemostats, forceps and a #15 scalpel, the cartilage was excised in full thickness pieces. Care was taken not to cut too deep into the subchondral bone to prevent bleeding. The cartilage pieces were placed into a 50 mL centrifuge tube containing 25 mL of Delbecco's phosphate buffered saline (D-PBS) supplemented with 1% antibiotic solution (penicillin, streptomycin and fungizone; GIBCO/BRL). The slices from each joint were then placed into separate 50 mL centrifuge tubes. The D-PBS was decanted and replaced with 25 mL of fresh D-PBS supplemented with antibiotics and subsequently agitated gently.
The cartilage pieces were transferred to a fresh 50 mL centrifuge tube and rinsed once more with 25 mL of D-PBS minus antibiotics. An enzymatic digestion solution containing 1 mg/mL of hyaluronidase in serum-free 1:1 DMEM/Ham's F-12 (DMEM/F12) was prepared. This solution was filter sterilized with […] Milex--GV filter and kept on ice until ready to use. The cartilage pieces were digested with approximately 5 mL of hyaluronidase solution per joint for 2×15 minutes at 37° C. in the 50 mL centrifuge tube with gentle agitation at the 15 minute mark. This procedure removed residual hyaluronic acid from the surface of the chips. The enzymatic digestion solution was then aspirated and the cartilage pieces were rinsed with 25 mL of D-PBS.
A second enzymatic digestion solution containing 2.5 mg trypsin and 2 mg collagenase P per mL serum-free DMEM/F12 was prepared. This solution was also filter sterilized with a […] Millex--GV filter and kept on ice until ready to use. The cartilage pieces were digested with approximately 5 mL of trypsin: collagenase solution per joint for 2×15 minutes at 37° C. in the 50 mL centrifuge tube with gentle agitation at the 15 minute mark. This procedure removed the synovial fibroblasts and any adherent connective tissue from the surface of the chips. The enzymatic digestion solution was then carefully removed and saved and the cartilage pieces were rinsed with 25 mL of D-PBS.
A third enzymatic solution containing 2 mgs of collagenase P (BMB) per mL serum-free DMEM/F12 was prepared. This solution was filter sterilized with a […] Millex--GV filter and kept on ice until ready to use. The pre-digested cartilage pieces were finally digested with approximately 20 mL of enzymatic digestion solution per joint for 5-6 hours at 37° C. in a Bellco stirring digestion flask, at which point the cartilage was fully digested away.
The enzymes in the synovial fibroblast and chondrocyte digest were neutralized by addition of an equal volume of DMEM/F12 supplemented with 5% fetal bovine serum. Fibroblasts were plated in DMEM at a cellular density of 6.6×10^3 cells per cm^2. […]

[2] = tested on: bovine cartilage explants, interleukin-1 stimulated proteoglycan degradation; experiment: Bovine articular cartilage explant assay (IL-1 induced 35S-GAG release); assay type: cell-based, bovine (1 to 3 week old calf); conditions: for IC50: Bos taurus, bovine cartilage explants, rhIL-1α 5 ng/mL, 3-4 days, read-out: IC50, inhibition of interleukin-1 stimulated proteoglycan degradation; for dose response curve (FIG. 2): percent inhibition over a range of concentrations
Source text: A tissue culture assay was used to measure the ability of the compounds of the present invention to slow the degradation of the extracellular matrix by metalloproteinases. This assay measured the amount of ^35 S-glycosaminoglycan (^35 S-GAG) released from labeled bovine cartilage explants.
Knee joints from a 1 to 3 week old calf were obtained immediately after sacrifice from the Abattoir and then transported on ice. The intact joints were washed well with tap water and soaked in 50% (v/v) Povidine iodine solution, obtained from Burre National, Inc., Baltimore, Md. All subsequent steps were performed in a laminar flow tissue culture hood using standard sterile technique. The joint was immobilized in a shank holder and the joint capsule was cut open to expose the articular cartilage. Cartilage explant plugs, approximately 15 mg wet weight, were removed from the flat articulating surfaces in the lower-most region of the knee joint using a sterile steel cork-borer and collected in a 250 mL roller bottle containing about 100 mL fresh Delbecco's minimum essential medium (DMEM), obtained from Gibco BRC, Life Technologies, Gaithersburg, Md., containing 4.5 g/l (D)-glucose and (L)-glutamine, without sodium pyruvate. The fresh media also contained enough Hepes buffer and sodium bicarbonate such that the pH was about 7.4. The media was then further supplemented just before use with 100 units Penicillin, 100 μg Streptomycin, and 50 μg (L)-ascorbic acid per mL of medium.
Once collected, the explant plugs were washed four times with 50 mL fresh DMEM. The plugs were then placed in the incubator for a minimum of 1 hour to equilibrate, before proceeding to make disks from the articulating surface of each plug. A 1 mm thick disk was sliced from individual plugs from the end that was the articulating surface of the joint. The plug was held steady in the sterile template (4 mm diameter ×1.5 mm deep) using sterile forceps. A scalpel blade was used to carefully slice off the disk. Only the superficial articulating surface responded well in culture.
Individual disks obtained were transferred to a tissue culture flask containing about 100 mL fresh media. The flask containing the disks was placed in an incubator at 37° C. (with 5% CO2, 95% air) and allowed to equilibrate overnight and at least one additional day before labeling. When ready to label, the old media was replaced with 50 mL fresh media containing about 500 μCi ^35 S-Sodium Sulfate. The plugs were labeled in bulk for about 48 hours. […]
The TC plates were then placed in the incubator and cultured for 3-4 days (initial incubation with rhIL-1α alpha takes at least 3 days to stimulate endogenous metalloproteinases). A 50 μL aliquot of media from each TC plate was saved and counted. […]

[3] = tested on: osteoarthritis in Hartley guinea pigs following surgical induction of joint instability; experiment: Slowing the development of osteoarthritis in the Hartley guinea pig model (surgically induced joint instability, Mankin scoring); assay type: in vivo, male Hartley guinea pigs; set-up: Structure (Mankin criteria), mean / Cells (Mankin criteria), mean / Safranin O (Mankin criteria), mean / mean Mankin score: scale not given here; conditions: for Cells (Mankin criteria), mean: untreated 1.6; for Safranin O (Mankin criteria), mean: untreated 2.3; for Structure (Mankin criteria), mean: untreated 4.6; for mean Mankin score: untreated 10.3, placebo 10.0
Protocol: Thirty five male Hartley guinea pigs 40 days old, were purchased from Charles River Laboratories. Each group consisted of 5 animals that were euthanized at 1, 2, 3, 4, 5, 6 and 8 months post-surgery. Ketamine 40 mg/kg, Xylazine 5 mg/kg and Fentanyl 0.1 mg/kg sc were used for anesthesia. Naloxone hydrochloride was given at 0.1 mg/kg following surgery. For radiography, animals were sedated with Xylazine 10 mg/kg sc and superficially anesthetized with Ketamine 20 mg/kg sc.
Surgery was performed under direct visualization using a dissecting microscope at 7.5 fold magnification. A medial longitudinal parapatellar incision was followed by division of the capsule and synovial layers. A partial medical menisectomy was followed by transection of the anterior cruciate ligament. Confirmation of the ligament transection was obtained by a positive anterior drawer sign. The capsule was continuously sutured with 5-0 VICRYL™ and the skin was closed with staples.
After the animals were sacrificed, joints were prepared for histological examination by standard techniques. Joints were fixed for 14 days in 10% formalin. Knees were then decalcified in 20% Formic acid in PBS, pH 7.2 for 24 hours. Sections cut at 5μ were stained with Safranin O, Fast Green and Hematoxylin. Radiographic evaluation was performed with antero-posterior and lateral views. A dental X-Ray unit and DF-50 film were used. Histopathological scoring was performed by two blinded, independent observers using the Mankin criteria (Mankin, H. J., "Biochemical and Metabolic Aspects of Osteoarthritis," Orthopedic Clinics of North America, 2:19-30 (1971). This evaluation system grades the structural defects, cellular changes, loss of proteoglycan as reflected by Safranin 0, and disruption of an antatomic landmark reflecting the transition to calcified cartilage. The Mankin scoring criteria are listed below:
Surgery was performed on twenty-four male Hartley guinea pigs during which the joint instability was induced according to the procedure described in Example 4.
The animals were divided into four groups of six. Beginning two weeks following surgery, each animal in the first two groups was given weekly intraarticular injections into the surgically treated joints of 0.3 mg (6 mg/ml) or 1.5 mg of Z-debromohymenialdisine (30 mg/ml) in a vehicle containing carboxymethylcellulose (2 mg/ml saline) and polysorbate 80 (0.5 mg/ml saline). Total volume of the injection was 50 μl. Group III animals were given weekly intraarticular injections of a placebo, while Group IV animals were left untreated. The treatments were continued for seven weeks.
At the termination of the system, the animals were euthanized and […] evaluation of the knees was performed as described in Example 5 using the Mankin criteria. The results of the histological evaluation at seven weeks post surgery are depicted in FIG. 4.

[4] = 0.3 or 1.5 mg/week intraarticular

O=C1NC(=O)/C(=C2/CCNC(=O)c3[nH]c(Br)cc32)N1 [Axinohydantoin (3), axinohydantoin]
IC50 [1]: > 50 µM

NC1=N/C(=C2\CCNC(=O)c3[nH]ccc32)C(=O)N1 [E-debromohymenialdisine]
IC50 [1]: 6 µM
dose response curve (FIG. 1) [1]: broad, shallow dose response curve
IC50 [2]: 50 µM
dose response curve (FIG. 2) [2]: broad, shallow dose response curve

NC1=NC(=O)/C(=C2\CCNC(=O)c3[nH]c(Br)cc32)N1 [Hymenialdisine (2), hymenialdisine]
IC50 [1]: > 50 µM

NC1=N/C(=C2/CCNC(=O)c3[nH]ccc32)C(=O)N1 [Z-debromohymenialdisine]
IC50 [1]: 0.8 µM
dose response curve (FIG. 1) [1]: broad, shallow dose response curve
IC50 [2]: 2 µM
dose response curve (FIG. 2) [2]: broad, shallow dose response curve
Cells (Mankin criteria), mean ([3]; 0.3 mg weekly intraarticular): 1.2
Safranin O (Mankin criteria), mean ([3]; 0.3 mg weekly intraarticular): 1.5
Structure (Mankin criteria), mean ([3]; 0.3 mg weekly intraarticular): 3.5
mean Mankin score ([3]; 0.3 mg/week intraarticular): 6.7
Cells (Mankin criteria), mean ([3]; 1.5 mg weekly intraarticular): 1.5
Safranin O (Mankin criteria), mean ([3]; 1.5 mg weekly intraarticular): 1.1
Structure (Mankin criteria), mean ([3]; 1.5 mg weekly intraarticular): 1.6
mean Mankin score ([3]; 1.5 mg/week intraarticular): 5.5
disease progression, result in words [3, 4]: significant reduction in disease progression
structural and biochemical changes in developing osteoarthritis (loss of Safranin O staining), result in words [3, 4]: able to diminish the structural and biochemical changes
joint degeneration and cartilage degradation, result in words ([3]; animal model, weekly intraarticular): effective in slowing joint degeneration and cartilage degradation
